Counter-ions that a name gives are not always drawn.
Tests used:
HIV-1 isolate 89BZ_167 = test: In vitro efficacy against HIV-1 in fresh PBMCs (reverse transcriptase activity in supernatant), isolate 89BZ_167; format: cell-based
Experimental: Fresh human PBMCs, seronegative for HIV and HBV, were isolated from screened donors (Biological Specialty Corporation, Colmar, PA). Cells were pelleted/washed 2-3 times by low speed centrifugation and re-suspension in PBS to remove contaminating platelets. The Leukophoresed blood was then diluted 1:1 with Dulbecco's Phosphate Buffered Saline (DPBS) and layered over 15 mL of Ficoll (GE Healthcare #17-1440-02) in 50 mL centrifuge tube and then centrifuged for 30 minutes at 600×g. Banded PBMCs were gently aspirated from the resulting interface and subsequently washed 2× with PBS by low speed centrifugation. After the final wash, cells were enumerated by tryptan blue exclusion and re-suspended at 1×10^6 cells/mL in RPMI 1640 supplemented with 15% Fetal Bovine Serum (FBS), and 2 mM L-glutamine, 4 μg/mL Phytohemagglutinin (PHA, Sigma). The cells were allowed to incubate for 48-72 hours at 37° C. […] Pooling (mixing) of mononuclear cells from more than one donor was used to minimize the variability observed between individual donors, which results from quantitative and qualitative differences in HIV infection and overall response to the PHA and IL-2 of primary lymphocyte populations. […]

[1] = Cytotoxicity in HCV replicon cells (CytoTox-1 cell proliferation assay); format: cell-based; conditions: human, concentration decreasing cell viability by 50%
Experimental: The subgenomic HCV replicons of genotype 1a (H77 strain), 1b (Coni strain), and 2a (JFH-1 strain), which are Huh7 human hepatoma cell lines that contains an HCV replicon were used.
Briefly, the replicon cells were plated at 5,000 cells/well into 96-well plates that were dedicated for the analysis of cell numbers (cytotoxicity) or antiviral activity. On the following day, samples were diluted with assay media and added to the appropriate wells. Cells were processed 72 hours later when the cells were still sub-confluent. For the luciferase endpoint assay, HCV replicon levels were assessed as replicon-derived Luc activity. The concentration of drug that reduces cell viability was assessed by the fluorometric CytoTox-1 cell proliferation assay (Promega), (expressed as cell numbers). For the qRT-PCR/TaqMan assay, total RNA was extracted from the replicon cells using RNeasy 96 kit (Qiagen) according to the manufacturer's protocol. Real-time RTPCR/TaqMan assays was performed to measure copy numbers of the replicon RNA and cellular ribosomal RNA.

C[C@H](Cn1cnc2c(N)ncnc21)OCP(=O)(OCOC(=O)C(C)(C)C)Oc1ccccc1 (stereo partly drawn) [((((((R)-1-(6-amino-9H-purin-9-yl)propan-2-yl)oxy)methyl)(phenoxy)phosphoryl)oxy)methyl pivalate fumarate]
Selectivity Index (HIV-1 isolate 89BZ_167; HIV-1 isolate 89BZ_167, PBMCs): 1333
EC50 (HIV-1 isolate 89BZ_167; Human immunodeficiency virus 1, PBMC, HIV-1 isolate 89BZ_167, PHA-stimulated fresh human PBMCs, six-seven days): 20.8 nM
CC50 at 72 h [1]: 50.1 µM

— US12090163B2, “Pharmaceutical compositions” (CIPLA LIMITED, priority 2017, dated 2024)
